# “Also recorded” adds a separate entry of the source.
# Experiments:
# [1] = test system: adult human articular chondrocytes; assay: Survival / apoptosis (Annexin V) of adult articular chondrocytes; format: cell-based; settings: for chondrocytes survival in adult explants: LIF 50 ng/mL, CRM-423 10 uM
# Description: FIGS. 28A-28I. Small molecule-mediated activation of a fetal-like molecular and functional phenotype in adult articular cartilage. (FIG. 28A) Adult human articular chondrocytes were incubated with or without RCGD 423 and levels of MYC and pSTAT3 were quantified relative to histone H3. (FIG. 28B) Levels of MYC and pSTAT3 protein were measured in pig adult articular chondrocytes to determine the effects of RCGD 423 in a dose- and time-dependent manner; histone H3 was used as a loading control. (FIG. 28C) Migration of adult human articular chondrocytes in a Transwell® assay was assessed in the presence and absence of RCGD 423. (FIG. 28D) Adult human articular chondrocytes were incubated with or without RCGD 423 in hydrogel for 24 hours and then apoptotic cells were quantitated via flow cytometry for Annexin V. (FIG. 28E) Single human adult articular chondrocytes were cultured for 5 weeks with or without stimulation with RCGD 423. (FIG. 28F) Proliferation in explants of adult pig articular cartilage in the absence or presence of RCGD 423 as shown by EdU incorporation. Explants of adult pig articular cartilage were incubated with EdU in the presence or absence of LIF to detect proliferating cells. Scale bars represent 25 μm. (FIG. 28G) Metabolic activity of human adult articular chondrocytes (ECAR and OCR) was assessed in the presence or absence of RCGD 423; the response in these parameters to stimulation with LIF is shown for comparison. […]
# Only early passages of chondrocytes (passage 0-2) were used for experimentation to avoid de-differentiation and loss of cartilage phenotype (Wu et al., 2014). Cartilage explants were made using 1, 2 or 8 mm biopsy punch and wet weight of each explant determined prior to experimentation. […]
# TdT-mediated dUTP nick-end labeling (TUNEL) or EdU assays were performed by using in situ cell death detection kit (TUNEL, Roche Diagnostics GmbH, Germany) or Click-iT® Assay Kit obtained from Invitrogen (Carlsbad, Calif.), respectively, as described in the manufacturer's protocol. […] After staining sections were analyzed using fluorescent microscopy. […]
# [2] = test system: adult pig articular cartilage explants; assay: Proliferation (EdU) and marker expression in adult articular cartilage explants; format: cell-based
# Description: FIGS. 26A-26J. LIF/STAT3/MYC signaling is prominent in fetal articular chondrocytes and can activate a fetal-like phenotype in adult cells. (FIG. 26A) Levels of phospho-STAT3 (pSTAT3) and MYC protein were quantitated in human fetal and adult articular chondrocytes relative to histone H3. (FIG. 26B) Effects of soluble LIF receptor (sLIFR) on MYC and pSTAT3 protein levels on fetal articular chondrocytes after 72 hours. (FIG. 26C) Detection of apoptotic cells using TUNEL staining and flow cytometry analysis of fetal articular cartilage explants cultured in the absence (control) or presence of a MYC (10058-F4) or STAT3 (STATTIC) inhibitor for 24 hours. (FIG. 26D) Quantification of proliferating cells via EdU incorporation in fetal articular cartilage explants and also by flow cytometry analysis for BrdU. Scale bars represent 100 μm. (FIG. 26E) Assessment of metabolic activity of human fetal articular chondrocytes cultured in the presence or absence of MYC or STAT3 inhibitors. (FIG. 26F) Migration capacity of fetal articular chondrocytes was assessed using a Transwell® assay in the absence or presence of MYC and STAT3 inhibitors. (FIG. 26G) Protein levels of MYC and pSTAT3 were measured in adult human articular chondrocytes with and without incubation with LIF. Data are shown normalized to histone H3. (FIG. 26H) Migratory capacity of adult human articular chondrocytes in a Transwell® assay measured in the presence or absence of LIF. (FIG. 26I) Single adult human articular chondrocytes were cultured with or without LIF for 5 weeks to allow detection of colony-forming cells. […]
# FIGS. 28A-28I. […] (FIG. 28A) Adult human articular chondrocytes were incubated with or without RCGD 423 and levels of MYC and pSTAT3 were quantified relative to histone H3. (FIG. 28B) Levels of MYC and pSTAT3 protein were measured in pig adult articular chondrocytes to determine the effects of RCGD 423 in a dose- and time-dependent manner; histone H3 was used as a loading control. (FIG. 28C) Migration of adult human articular chondrocytes in a Transwell® assay was assessed in the presence and absence of RCGD 423. […]
Compound,chondrocytes survival in adult explants [1],"apoptosis (Annexin V) ([1]; adult human articular chondrocytes in hydrogel, 24 hours)",proliferation of chondrocytes in adult cartilage explants (EdU) [2],"expression of the stem/progenitor cell marker ALDH 1A1 in the surface layer ([2]; adult pig cartilage explants, LIF 50 ng/mL for 3 days)"
"Brc1ccc(Nc2nc(-c3ccccc3)cs2)cc1 [RCGD 423, N-(4-Bromophenyl)-4-phenyl-1,3-thiazol-2-amine]",increase,decreased,increased,
LIF: interleukin 6 (IL-6)-class cytokine,increase; also recorded: promoted survival,,stimulated proliferation; also recorded: significantly increased,increased expression

# — patent US11072592B2, “Small molecules that enable cartilage rejuvenation” (The Regents of the University of California, priority 2015, dated 2021)
